System: apoE−/− mice
Assay: Immunization of apoE−/− mice with peptide in Freund's adjuvant; size of atherosclerotic lesions in the proximal aorta
Type: in vivo
Conditions: for effect of immunization on atherosclerosis: experimental animals (apoE−/− mice)
Protocol: It was hypothesized that the induction of protective immunity could depend on presentation of peptides derived from apoB100 and modified by adduct formation during oxidative modification of the LDL particle. Further, it was hypothesized that such peptides must have a sequence that (i) contains side chains susceptible to adduct formation, and (ii) permits them to bind to MHC class II molecules. The apoB100 sequence was analyzed to identify such motifs. […] A peptide containing this sequence was synthesized and used for immunization of apoE−/− mice. The effect on atherosclerosis was quantified by measuring the size of atherosclerotic lesions after 12 weeks.
8 week old female apoE−/− mice (B6, Apoe−/−, M&B, Ry, Denmark) were immunized with 100 μg of peptide SEQ. ID. NO. 1, and SEQ. ID. NO. 2, respectively, emulsified with Freund's complete adjuvant to a total volume of 50 μl. Mice were boosted after 2 and 4 weeks with 50 μg of peptide in Freund's incomplete adjuvant. A third group of mice consisting of age-matched male mice was injected according to the same scheme with phosphate-buffered saline (PBS) in adjuvant. 4 weeks after the last boost, mice were anesthetized with carbon dioxide and killed by exsanguination after cardiac puncture. After vascular perfusion with sterile RNase-free PBS, the heart and proximal aorta were removed, embedded in OCT compound, frozen and cryosectioned.
The size of atherosclerotic lesions in the proximal aorta was quantified by using Leica Qwin software (for details of the method, see Nicoletti et al., J. Clin. Invest. (1998)) Results were expressed as μm^2 average lesion area per cross-section, as well as relative lesion area, i.e., lesion area (μm^2) divided by total aortic cross-section area (μm^2). The Mann-Whitney U test used for comparisons between means.

Which “effect of immunization on atherosclerosis” value does the source give for “NH2-YSKVHNGSEILFSYFQDLVIT-COOH (H-YSKVHNGSEILFSYFQDLVIT-OH) [SEQ. ID. NO. 2]” here?
Its value is “aggravates atherosclerosis”.

And the “lesions larger than PBS controls” value (female apoE−/− mice, same immunization scheme, proximal aorta, p<0.05)?
The value was 36%.

Which results are given for “NH2-PTVMDFRKFSRNYQLYKSVSLPS-COOH (H-PTVMDFRKFSRNYQLYKSVSLPS-OH) [SEQ. ID. NO. 1, amino acids 625-647 of the human apoB100 protein]”?
lesion size versus control mice injected with PBS/adjuvant alone (apoE−/− mice, FIG. 1): significantly smaller lesions; lesion size versus mice immunized with peptide SEQ. ID. NO. 2 (apoE−/− mice, FIG. 1): significantly smaller; effect of immunization on atherosclerosis: inhibition of atherosclerosis; reduction in lesion size compared to PBS controls (female apoE−/− mice, 100 μg peptide in Freund's complete adjuvant, boosts of 50 μg after 2 and 4 weeks, proximal aorta, p<0.05): 42%; reduction in lesion size compared with peptide SEQ. ID. NO. 2 immunized mice (female apoE−/− mice, same immunization scheme, proximal aorta, p<0.001): 62%

Source: US20080070265A1, “PEPTIDE-BASED IMMUNIZATION THERAPY FOR TREATMENT OF ATHEROSCLEROSIS” (CARDIO VAX, priority 2003, published 2008)
